Results on 52 compounds are retold here after patent publication US20260116868A1 (Arcus Biosciences, Inc., priority 2023, published 2026).

For the test, the target named is T1, Cbl-b (Homo sapiens, UniProt Q13191).
T1 construct: biotin (biotinylated protein)
The test is described as follows: Cbl-b probe displacement HTRF binding assay. As to conditions: 0.4 nM Cbl-b, 150 nM BODIPY probe. In short, it runs like this:
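Compound competes with BODIPY probe (150 nM) for biotinylated Cbl-b (0.4 nM) in HEPES/NaCl/Triton/TCEP/BSA buffer; 60 min preincubation, 15 min with probe, room temperature. Tb-streptavidin HTRF read; % displacement vs DMSO and no-protein controls, IC50 from four-parameter fit.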
(In general: In TR-FRET formats the signal depends on donor and acceptor labels being close together.)

T1 sequence (Q13191 whole entry, species assumed): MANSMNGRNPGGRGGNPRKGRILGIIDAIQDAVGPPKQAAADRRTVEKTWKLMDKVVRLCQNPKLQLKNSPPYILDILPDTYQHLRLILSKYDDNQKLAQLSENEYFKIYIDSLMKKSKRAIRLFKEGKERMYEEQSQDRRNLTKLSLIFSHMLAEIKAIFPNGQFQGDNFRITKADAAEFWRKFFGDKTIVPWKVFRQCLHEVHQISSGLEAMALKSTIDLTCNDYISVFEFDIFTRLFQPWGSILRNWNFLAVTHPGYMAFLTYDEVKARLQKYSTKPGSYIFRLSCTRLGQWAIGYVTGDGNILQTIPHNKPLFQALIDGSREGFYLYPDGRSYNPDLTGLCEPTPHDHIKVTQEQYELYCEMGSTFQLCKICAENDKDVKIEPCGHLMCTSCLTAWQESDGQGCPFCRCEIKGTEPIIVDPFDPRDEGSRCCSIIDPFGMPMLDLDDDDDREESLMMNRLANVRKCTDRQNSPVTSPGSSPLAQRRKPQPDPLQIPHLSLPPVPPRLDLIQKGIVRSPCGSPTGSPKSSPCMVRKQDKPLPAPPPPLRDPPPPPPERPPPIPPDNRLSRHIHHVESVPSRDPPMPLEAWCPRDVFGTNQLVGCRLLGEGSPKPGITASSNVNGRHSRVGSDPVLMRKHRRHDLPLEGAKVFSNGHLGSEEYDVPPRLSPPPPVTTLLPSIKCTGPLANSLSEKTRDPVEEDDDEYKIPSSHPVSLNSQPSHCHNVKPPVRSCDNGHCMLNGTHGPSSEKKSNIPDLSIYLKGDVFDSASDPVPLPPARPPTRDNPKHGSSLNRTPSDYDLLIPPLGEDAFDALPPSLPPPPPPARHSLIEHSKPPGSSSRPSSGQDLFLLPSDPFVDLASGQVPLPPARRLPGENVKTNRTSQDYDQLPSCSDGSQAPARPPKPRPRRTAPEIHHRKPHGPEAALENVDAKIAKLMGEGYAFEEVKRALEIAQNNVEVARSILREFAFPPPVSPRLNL

By IC50 is commonly meant the concentration at which inhibition is half-maximal. Read a high IC50 as a need for much substance. On to `CC(N[C@@H](C)C1CCC1)c1cc(C(=O)Nc2cc(-c3ccc(C#N)cc3C(=O)N3CC(F)(F)C3)cc(C3CC3)n2)c(=O)n(C2CC2)c1` (stereo partly shown) [Example 329], for which the IC50 was below 100 nM.
For `CCNc1cc(-c2ccc(OC(F)F)cc2C(=O)N2CC(F)(F)C2)cc(NC(=O)c2cc(CNC[C@H](C)OC)cn(C3CC3)c2=O)n1` [Example 330] the value was below 100 nM; for `CCOc1cc(-c2ccc(OC(F)F)cc2C(=O)N2CC(F)(F)C2)cc(NC(=O)c2cc(CNC[C@H](C)OC)cn(C3CC3)c2=O)n1` [Example 331], below 100 nM; for `CO[C@@H](C)CNCc1cc(C(=O)Nc2cc(-c3ccc(OC(F)F)cc3C(=O)N3CC(F)(F)C3)cc(NC(C)C)n2)c(=O)n(C2CC2)c1` [Example 332], below 100 nM.
`CC(NCC1CC1)c1cc(C(=O)Nc2cc(-c3ccc(C#N)cc3C(=O)N3CC(F)(F)C3)cc(C3CC3)n2)c(=O)n(C2CC2)c1` (stereo not shown) [Example 333] had an IC50 below 100 nM.
Under `COc1cc(-c2ccc(OC(F)F)cc2C(=O)N2CC(F)(F)C2)cc(NC(=O)c2cc(CNC[C@H](C)OC)cn(C3CC3)c2=O)n1` [Example 334] stands below 100 nM; under `COC[C@H](C)NC(C)c1cc(C(=O)Nc2cc(-c3ccc(C#N)cc3C(=O)N3CC(F)(F)C3)cc(C3CC3)n2)c(=O)n(C2CC2)c1` (stereo partly shown) [Example 335], below 100 nM.
For `CC(C)[C@H](C)N[C@@H](C)c1cc(C(=O)Nc2cc(-c3ccc(C#N)cc3C(=O)N3CC(F)(F)C3)cc(C3CC3)n2)c(=O)n(C2CC2)c1` [Example 336] the value was below 100 nM.
Take `COCCNCc1cc(C(=O)Nc2cc(-c3ccc(OC(F)F)cc3C(=O)N3CC(F)(F)C3)cc(C3CC3)n2)c(=O)n(C2CC2)c1` [Example 337]: the IC50 is below 100 nM.
For `CO[C@@H](C)CNCc1cc(C(=O)Nc2cc(-c3ccc(OC(F)F)cc3C(=O)N3CC(F)(F)C3)cc(C)n2)c(=O)n(C2CC2)c1` [Example 338] the value was below 100 nM; for `CO[C@@H](C)CNCc1cc(C(=O)Nc2cc(-c3ccc(C#N)cc3C(=O)N3CC(F)(F)C3)cc(OC(C)C)n2)c(=O)n(C2CC2)c1` [Example 339], below 100 nM.
`CCOc1cc(-c2c(F)cc(C#N)cc2C(=O)N2CC(F)(F)C2)cc(NC(=O)c2cc(CNC[C@H](C)OC)cn(C3CC3)c2=O)n1` [Example 340]: the IC50 is below 100 nM.
In the case of `N#Cc1ccc(-c2cc(NC(=O)c3cc(CNC[C@@H]4CCCO4)cn(C4CC4)c3=O)nc(OC(F)F)c2)c(C(=O)N2CC(F)(F)C2)c1` [Example 341], the IC50 was below 100 nM.
Under `COCCNCc1cc(C(=O)Nc2cc(-c3ccc(C#N)cc3C(=O)N3CC(F)(F)C3)cc(NC(C)C)n2)c(=O)n(C2CC2)c1` [Example 342] stands below 100 nM.
For `COc1ccc(-c2cc(NC(=O)c3cc(CN[C@@H](C)C4CCC4)cn(C4CC4)c3=O)nc(OCC(F)F)c2)c(C(=O)N2CC(F)(F)C2)c1` [Example 343] the value was below 100 nM; for `N#Cc1ccc(-c2cc(NC(=O)c3cc(CNC[C@@H]4CCCO4)cn(C4CC4)c3=O)nc(OCF)c2)c(C(=O)N2CC(F)(F)C2)c1` [Example 344], below 100 nM.
Under `CCOc1cc(-c2ccc(C#N)cc2C(=O)N2CC(F)(F)C2)cc(NC(=O)c2cc(CNCCOC)cn(C3CC3)c2=O)n1` [Example 345] stands below 100 nM; under `CCNc1cc(-c2ccc(C#N)cc2C(=O)N2CC(F)(F)C2)cc(NC(=O)c2cc(CNCCOC)cn(C3CC3)c2=O)n1` [Example 346], below 100 nM.
In turn, `Cc1ccc(-c2cc(NC(=O)c3cc(CN[C@@H](C)C4CCC4)cn(C4CC4)c3=O)nc(OCC(F)F)c2)c(C(=O)N2CC(F)(F)C2)c1` [Example 347] returned an IC50 below 100 nM.
For `COc1ccc(-c2cc(NC(=O)c3cc(CNC[C@H](C)OC)cn(C4CC4)c3=O)nc(OCC(F)F)c2)c(C(=O)N2CC(F)(F)C2)c1` [Example 348], the 50% inhibitory concentration (IC50) is below 100 nM.
Under `CO[C@@H](C)CNCc1cc(C(=O)Nc2cc(-c3ccc(C)cc3C(=O)N3CC(F)(F)C3)cc(OCC(F)F)n2)c(=O)n(C2CC2)c1` [Example 349] stands below 100 nM; under `Cn1cc(CNC[C@@H]2CCCO2)cc(C(=O)Nc2cc(-c3ccc(C#N)cc3C(=O)N3CC(F)(F)C3)cc(OCF)n2)c1=O` [Example 350], below 100 nM; under `C[C@H](NCc1cc(C(=O)Nc2cc(-c3ccc(C#N)cc3C(=O)N3CC(F)(F)C3)cc(C3CC3)n2)c(=O)n(C2CC2)c1)C1CCC1` [Example 351], below 100 nM.
Under `N#Cc1ccc(-c2cc(NC(=O)c3cc(CNC[C@@H]4CCCO4)cn(C4CC4)c3=O)nc(C3CC3)c2)c(C(=O)N2CC(F)(F)C2)c1` [Example 352] stands below 100 nM; under `CO[C@@H](C)CNCc1cc(C(=O)Nc2cc(-c3ccc(Cl)cc3C(=O)N3CC(F)(F)C3)cc(C3CC3)n2)c(=O)n(C2CC2)c1` [Example 353], below 100 nM; under `C[C@H](NCc1cc(C(=O)Nc2cc(-c3ccc(C#N)cc3C(=O)N3CC(F)(F)C3)cc(C3CC3)n2)c(=O)n(C)c1)[C@@H]1CCCO1` [Example 354], below 100 nM.
For `N#Cc1ccc(-c2cc(NC(=O)c3cc(CNCC4CCC4)cn(C4CC4)c3=O)nc(C3CC3)c2)c(C(=O)N2CC(F)(F)C2)c1` [Example 355] the value was below 100 nM; for `CC(C)CNCc1cc(C(=O)Nc2cc(-c3ccc(C#N)cc3C(=O)N3CC(F)(F)C3)cc(C3CC3)n2)c(=O)n(C2CC2)c1` [Example 356], below 100 nM.
`CO[C@@H](C)CNCc1cc(C(=O)Nc2cc(-c3ccc(F)cc3C(=O)N3CC(F)(F)C3)cc(NC(C)C)n2)c(=O)n(C2CC2)c1` [Example 357] registered an IC50 below 100 nM.
For `C[C@H](NCc1cc(C(=O)Nc2cc(-c3ccc(C#N)cc3C(=O)N3CC(F)(F)C3)cc(C3CC3)n2)c(=O)n(C2CC2)c1)C1CCCC1` [Example 358] the value was below 100 nM; for `CO[C@@H](C)[C@H](C)NCc1cc(C(=O)Nc2cc(-c3ccc(Cl)cc3C(=O)N3CC(F)(F)C3)cc(C3CC3)n2)c(=O)n(C2CC2)c1` [Example 359], below 100 nM.
Under `CO[C@@H](C)CNCc1cc(C(=O)Nc2cc(-c3ccc(F)cc3C(=O)N3CC(F)(F)C3)cc(C3CC3)n2)c(=O)n(C2CC2)c1` [Example 360] stands below 100 nM; under `COC[C@H](C)NCc1cc(C(=O)Nc2cc(-c3ccc(C#N)cc3C(=O)N3CC(F)(F)C3)cc(C3CC3)n2)c(=O)n(C2CC2)c1` [Example 361], below 100 nM; under `CC(C)[C@H](C)NCc1cc(C(=O)Nc2cc(-c3ccc(C#N)cc3C(=O)N3CC(F)(F)C3)cc(C3CC3)n2)c(=O)n(C2CC2)c1` [Example 362], below 100 nM.
Under `CO[C@H]1CCC[C@@H]1NCc1cc(C(=O)Nc2cc(-c3ccc(C#N)cc3C(=O)N3CC(F)(F)C3)cc(C3CC3)n2)c(=O)n(C2CC2)c1` [Example 363] stands below 100 nM; under `CO[C@@H](C)CNCc1cc(C(=O)Nc2cc(-c3ccc(C#N)cc3C(=O)N3CCC3)cc(C3CC3)n2)c(=O)n(C2CC2)c1` [Example 364], below 100 nM.
`C[C@H](NCc1cc(C(=O)Nc2cc(-c3ccc(C#N)cc3C(=O)N3CC(F)(F)C3)cc(C3CC3)n2)c(=O)n(C2CC2)c1)C1CC1` [Example 365] showed a half-maximal inhibitory concentration (IC50) below 100 nM.
Under `N#Cc1ccc(-c2cc(NC(=O)c3cc(CNC[C@@H]4CCCCO4)cn(C4CC4)c3=O)nc(C3CC3)c2)c(C(=O)N2CC(F)(F)C2)c1` [Example 366] stands below 100 nM; under `CO[C@@H](C)CNCc1cc(C(=O)Nc2cc(-c3c(F)cc(F)cc3C(=O)N3CC(F)(F)C3)cc(C3CC3)n2)c(=O)n(C2CC2)c1` [Example 367], below 100 nM; under `CO[C@@H](C)CNCc1cc(C(=O)Nc2cc(-c3c(F)cc(F)cc3C(=O)N3CC(F)(F)C3)cc(OC(C)C)n2)c(=O)n(C2CC2)c1` [Example 368], below 100 nM.
For `N#Cc1ccc(-c2cc(NC(=O)c3cc(CNC[C@@H]4COCCO4)cn(C4CC4)c3=O)nc(C3CC3)c2)c(C(=O)N2CC(F)(F)C2)c1` [Example 369] the value was below 100 nM; for `O=C(Nc1cc(-c2ccc(Cl)cc2C(=O)N2CC(F)(F)C2)cc(C2CC2)n1)c1cc(CNCC2CCC2)cn(C2CC2)c1=O` [Example 370], below 100 nM.
With `CC(C)Oc1cc(-c2ccc(C#N)cc2C(=O)N2CC(F)(F)C2)cc(NC(=O)c2cc(CNC[C@@H]3COCCO3)cn(C3CC3)c2=O)n1` [Example 371], the IC50 was below 100 nM.
Under `COC[C@H](C)NCc1cc(C(=O)Nc2cc(-c3ccc(Cl)cc3C(=O)N3CC(F)(F)C3)cc(C3CC3)n2)c(=O)n(C2CC2)c1` [Example 372] stands below 100 nM.
Under `CCOc1cc(-c2ccc(F)cc2C(=O)N2CC(F)(F)C2)cc(NC(=O)c2cc(CNC[C@H](C)OC)cn(C3CC3)c2=O)n1` [Example 373] stands below 100 nM; under `COCCNCc1cc(C(=O)Nc2cc(-c3ccc(C#N)cc3C(=O)N3CC(F)(F)C3)cc(C3CC3)n2)c(=O)n(C2CC2)c1` [Example 374], below 100 nM.
For `N#Cc1ccc(-c2cc(NC(=O)c3cc(CNCCCF)cn(C4CC4)c3=O)nc(C3CC3)c2)c(C(=O)N2CC(F)(F)C2)c1` [Example 375] the value was below 100 nM; for `C[C@H](NCc1cc(C(=O)Nc2cc(-c3ccc(C#N)cc3C(=O)N3CC(F)(F)C3)cc(C3CC3)n2)c(=O)n(C2CC2)c1)C1CCCO1` (stereo partly shown) [Example 376], below 100 nM; for `CC(C)Oc1cc(-c2ccc(OC(F)F)cc2C(=O)N2CC(F)C2)cc(NC(=O)c2cc(CNC[C@@H]3COCCO3)cn(C)c2=O)n1` [Example 377], below 100 nM.
As to `O=C(Nc1cc(-c2ccc(Cl)cc2C(=O)N2CC(F)(F)C2)cc(C2CC2)n1)c1cc(CNC[C@@H]2CCCO2)cn(C2CC2)c1=O` [Example 378], the IC50 was below 100 nM.
For `O=C(Nc1cc(-c2ccc(OC(F)F)cc2C(=O)N2CC(F)(F)C2)cc(C2CC2)n1)c1cc(CNC[C@@H]2COCCO2)cn(C2CC2)c1=O` [Example 379] the value was below 100 nM; for `CO[C@@H](C)CNCc1cc(C(=O)Nc2cc(-c3ccc(F)cc3C(=O)N3CC(F)(F)C3)cc(NC(C)C)n2)c(=O)n(C)c1` [Example 380], below 100 nM.
